% of control, % of inhibition and Kd data for eight compounds are collected here from ChEMBL document CHEMBL5465560, “Selectivity Literature for EUbOPEN Chemogenomic Library” (2024).

Broadly, the Kd is the concentration at which binding is half-saturated. High values mean weaker binding, low ones tighter binding.

Molecules are shown by their SMILES.

The target in experiment [1] is T1, Ephrin type-B receptor 6 (Homo sapiens) (UniProt O15197).
T1 sequence (whole entry): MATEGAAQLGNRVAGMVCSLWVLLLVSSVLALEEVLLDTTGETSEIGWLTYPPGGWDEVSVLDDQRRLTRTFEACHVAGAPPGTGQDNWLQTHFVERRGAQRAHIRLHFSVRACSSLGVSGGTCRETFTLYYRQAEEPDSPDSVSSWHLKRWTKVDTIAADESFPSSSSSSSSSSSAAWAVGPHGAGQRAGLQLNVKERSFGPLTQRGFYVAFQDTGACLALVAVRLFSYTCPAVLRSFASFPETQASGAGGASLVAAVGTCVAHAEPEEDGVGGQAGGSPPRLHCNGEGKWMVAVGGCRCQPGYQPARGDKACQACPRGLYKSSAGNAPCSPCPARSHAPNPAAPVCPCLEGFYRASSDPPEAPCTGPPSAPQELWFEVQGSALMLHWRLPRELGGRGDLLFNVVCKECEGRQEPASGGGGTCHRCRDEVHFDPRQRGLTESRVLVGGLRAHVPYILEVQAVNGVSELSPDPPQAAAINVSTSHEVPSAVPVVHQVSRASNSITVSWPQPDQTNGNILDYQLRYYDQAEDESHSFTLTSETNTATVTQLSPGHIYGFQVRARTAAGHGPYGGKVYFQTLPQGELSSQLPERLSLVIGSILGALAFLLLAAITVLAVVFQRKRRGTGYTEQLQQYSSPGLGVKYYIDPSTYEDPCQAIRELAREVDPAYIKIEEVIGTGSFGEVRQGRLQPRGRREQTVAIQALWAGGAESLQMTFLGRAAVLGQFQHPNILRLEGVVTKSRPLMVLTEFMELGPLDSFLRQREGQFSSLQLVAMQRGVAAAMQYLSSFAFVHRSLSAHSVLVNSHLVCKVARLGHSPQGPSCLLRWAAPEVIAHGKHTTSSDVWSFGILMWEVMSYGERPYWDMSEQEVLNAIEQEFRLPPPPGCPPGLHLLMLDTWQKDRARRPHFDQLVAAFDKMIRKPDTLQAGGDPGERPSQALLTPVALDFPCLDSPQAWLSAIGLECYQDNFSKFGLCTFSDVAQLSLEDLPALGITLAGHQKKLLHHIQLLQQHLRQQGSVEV
In words: Selectivity interaction (KinomeScan (DiscoverX)) EUB0000607a EPHB6. The following applies: at 10 µM.

The target of experiment [2] is Ribosomal protein S6 kinase alpha-6 (Homo sapiens, UniProt Q9UK32). The experiment can be described thus: Selectivity interaction (KinomeScan (DiscoverX)) EUB0001619a RPS6KA6. To be noted: at 1 µM.
In experiment [3] the target is Transient receptor potential cation channel subfamily M member 6 (Homo sapiens) (UniProt Q9BX84). The experiment can be described thus: Selectivity interaction (KinomeScan (DiscoverX)) EUB0001619a TRPM6. The following applies: at 1 µM.
In experiment [4] the target is MAP/microtubule affinity-regulating kinase 3 (Homo sapiens) (UniProt P27448). In words: Selectivity interaction (Kinase panel (Invitrogen)) EUB0000639a MARK3. To be noted: at 200 nM.
Experiment [5] deals with RAC-beta serine/threonine-protein kinase (Homo sapiens) (UniProt P31751). In words: Selectivity interaction (KinomeScan (DiscoverX)) EUB0001049a AKT2. To be noted: at 1 µM.
The target in experiment [6] is T2, Bromodomain-containing protein 9 (Homo sapiens, UniProt Q9H8M2).
T2 sequence (Q9H8M2 whole entry): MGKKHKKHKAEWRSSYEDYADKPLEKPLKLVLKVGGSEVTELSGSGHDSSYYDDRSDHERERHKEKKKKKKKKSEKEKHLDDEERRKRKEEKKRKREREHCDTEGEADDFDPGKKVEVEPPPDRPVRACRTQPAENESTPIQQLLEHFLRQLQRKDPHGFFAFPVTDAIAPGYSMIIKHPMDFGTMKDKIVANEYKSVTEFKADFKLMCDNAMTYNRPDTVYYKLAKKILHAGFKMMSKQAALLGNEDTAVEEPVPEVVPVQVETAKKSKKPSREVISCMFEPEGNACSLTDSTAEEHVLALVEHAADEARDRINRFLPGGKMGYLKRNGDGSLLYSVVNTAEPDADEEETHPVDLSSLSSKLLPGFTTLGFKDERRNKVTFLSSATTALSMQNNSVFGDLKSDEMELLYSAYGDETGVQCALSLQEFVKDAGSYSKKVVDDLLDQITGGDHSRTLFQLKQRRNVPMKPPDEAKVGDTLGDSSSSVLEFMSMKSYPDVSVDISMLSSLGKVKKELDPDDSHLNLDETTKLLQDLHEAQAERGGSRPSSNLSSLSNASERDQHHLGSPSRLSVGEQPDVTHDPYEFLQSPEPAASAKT
The experiment can be described thus: Selectivity interaction (ITC measurement) EUB0000233b BRD9.

For experiment [7], the target named is Dual specificity mitogen-activated protein kinase kinase 1 (Homo sapiens, UniProt Q02750). The experiment can be described thus: Selectivity interaction (KinomeScan (DiscoverX)) EUB0000092b MAP2K1. The following applies: at 10 µM.
The target of experiment [8] is Serine/threonine-protein kinase Nek4 (Homo sapiens) (UniProt P51957). The experiment can be described thus: Selectivity interaction (KinomeScan (DiscoverX)) EUB0000045b NEK4.
The target of experiment [9] is Serine/threonine-protein kinase PRP4 homolog (Homo sapiens) (UniProt Q13523). The experiment can be described thus: Selectivity interaction (KinomeScan (DiscoverX)) EUB0000595a PRPF4B. To be noted: at 10 µM.
Serine/threonine-protein kinase PRP4 homolog (Homo sapiens), sequence (Q13523 whole entry): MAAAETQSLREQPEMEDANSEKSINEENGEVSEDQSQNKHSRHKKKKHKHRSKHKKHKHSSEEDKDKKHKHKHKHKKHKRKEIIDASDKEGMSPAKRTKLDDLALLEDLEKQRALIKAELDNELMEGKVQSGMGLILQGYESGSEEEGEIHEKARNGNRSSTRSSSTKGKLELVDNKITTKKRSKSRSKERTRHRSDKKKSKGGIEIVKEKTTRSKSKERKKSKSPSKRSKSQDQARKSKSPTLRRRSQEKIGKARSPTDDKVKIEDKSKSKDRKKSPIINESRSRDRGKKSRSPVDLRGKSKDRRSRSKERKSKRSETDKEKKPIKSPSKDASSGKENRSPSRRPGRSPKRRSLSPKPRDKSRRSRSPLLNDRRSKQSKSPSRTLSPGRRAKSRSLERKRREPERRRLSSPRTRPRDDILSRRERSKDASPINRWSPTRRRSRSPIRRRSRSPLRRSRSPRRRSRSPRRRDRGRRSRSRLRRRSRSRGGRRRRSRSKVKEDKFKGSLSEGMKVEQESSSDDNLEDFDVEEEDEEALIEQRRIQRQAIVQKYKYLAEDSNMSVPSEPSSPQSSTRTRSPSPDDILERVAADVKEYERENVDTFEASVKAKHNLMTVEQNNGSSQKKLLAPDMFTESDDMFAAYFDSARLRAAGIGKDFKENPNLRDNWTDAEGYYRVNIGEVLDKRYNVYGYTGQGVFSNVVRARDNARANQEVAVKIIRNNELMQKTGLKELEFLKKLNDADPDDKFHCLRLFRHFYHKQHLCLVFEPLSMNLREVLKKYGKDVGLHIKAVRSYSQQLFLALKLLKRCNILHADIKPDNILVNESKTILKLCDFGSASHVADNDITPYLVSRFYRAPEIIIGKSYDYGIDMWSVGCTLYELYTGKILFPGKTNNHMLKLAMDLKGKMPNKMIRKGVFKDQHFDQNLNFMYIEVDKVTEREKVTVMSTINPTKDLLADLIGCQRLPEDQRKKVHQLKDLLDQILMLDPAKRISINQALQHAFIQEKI

Serine/threonine-protein kinase Nek4 (Homo sapiens), sequence (P51957 whole entry, looked up): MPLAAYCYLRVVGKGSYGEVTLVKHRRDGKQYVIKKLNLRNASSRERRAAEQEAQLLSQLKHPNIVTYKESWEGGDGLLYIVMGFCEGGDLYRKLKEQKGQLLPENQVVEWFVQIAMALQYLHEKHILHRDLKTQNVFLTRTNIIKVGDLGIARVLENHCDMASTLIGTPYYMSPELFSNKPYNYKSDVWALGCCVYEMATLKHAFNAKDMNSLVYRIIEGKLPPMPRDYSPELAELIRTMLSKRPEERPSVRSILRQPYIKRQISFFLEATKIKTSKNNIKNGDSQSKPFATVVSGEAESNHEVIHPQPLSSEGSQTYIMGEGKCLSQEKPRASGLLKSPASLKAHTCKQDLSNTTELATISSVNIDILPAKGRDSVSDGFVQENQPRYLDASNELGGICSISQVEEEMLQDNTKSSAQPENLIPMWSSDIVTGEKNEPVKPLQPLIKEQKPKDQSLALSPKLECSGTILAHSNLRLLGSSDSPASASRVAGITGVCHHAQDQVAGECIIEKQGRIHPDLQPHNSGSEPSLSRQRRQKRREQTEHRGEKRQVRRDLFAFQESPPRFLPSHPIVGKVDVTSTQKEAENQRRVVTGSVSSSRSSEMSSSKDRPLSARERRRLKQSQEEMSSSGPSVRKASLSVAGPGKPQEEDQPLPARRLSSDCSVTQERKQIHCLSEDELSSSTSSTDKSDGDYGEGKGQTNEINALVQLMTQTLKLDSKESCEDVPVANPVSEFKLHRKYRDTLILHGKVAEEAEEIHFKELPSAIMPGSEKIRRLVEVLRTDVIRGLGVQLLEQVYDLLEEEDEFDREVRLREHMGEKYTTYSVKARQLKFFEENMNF
Dual specificity mitogen-activated protein kinase kinase 1, sequence (Q02750 whole entry): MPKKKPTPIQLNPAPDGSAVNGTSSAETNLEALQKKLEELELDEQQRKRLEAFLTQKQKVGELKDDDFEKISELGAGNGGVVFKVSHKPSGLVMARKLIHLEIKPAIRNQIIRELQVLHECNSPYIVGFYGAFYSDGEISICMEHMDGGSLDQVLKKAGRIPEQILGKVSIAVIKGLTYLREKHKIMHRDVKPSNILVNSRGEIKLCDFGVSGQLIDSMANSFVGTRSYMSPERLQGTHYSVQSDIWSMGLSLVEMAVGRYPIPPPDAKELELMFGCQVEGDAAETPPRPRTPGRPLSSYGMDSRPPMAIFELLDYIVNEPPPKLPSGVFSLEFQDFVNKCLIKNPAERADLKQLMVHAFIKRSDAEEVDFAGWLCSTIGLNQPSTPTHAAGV
MAP/microtubule affinity-regulating kinase 3 (Homo sapiens), sequence (P27448 whole entry, looked up): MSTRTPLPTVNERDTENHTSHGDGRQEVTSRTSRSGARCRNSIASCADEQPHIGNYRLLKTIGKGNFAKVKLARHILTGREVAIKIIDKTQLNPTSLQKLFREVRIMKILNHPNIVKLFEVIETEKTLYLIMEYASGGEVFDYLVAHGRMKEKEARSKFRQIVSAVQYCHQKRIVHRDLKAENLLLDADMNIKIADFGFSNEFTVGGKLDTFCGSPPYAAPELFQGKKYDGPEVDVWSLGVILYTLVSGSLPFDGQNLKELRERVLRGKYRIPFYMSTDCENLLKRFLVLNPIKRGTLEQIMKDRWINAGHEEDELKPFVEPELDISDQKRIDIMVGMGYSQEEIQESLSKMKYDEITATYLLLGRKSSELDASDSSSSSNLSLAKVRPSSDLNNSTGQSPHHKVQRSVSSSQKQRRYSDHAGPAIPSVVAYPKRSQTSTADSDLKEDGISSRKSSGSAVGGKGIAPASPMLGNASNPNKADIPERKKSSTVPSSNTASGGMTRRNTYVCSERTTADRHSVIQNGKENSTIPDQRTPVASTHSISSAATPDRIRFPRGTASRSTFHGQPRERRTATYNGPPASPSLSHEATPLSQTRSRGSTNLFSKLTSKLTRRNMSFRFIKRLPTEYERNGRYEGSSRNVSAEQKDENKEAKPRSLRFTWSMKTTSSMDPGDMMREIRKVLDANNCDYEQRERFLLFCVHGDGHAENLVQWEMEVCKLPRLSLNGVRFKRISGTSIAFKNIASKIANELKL
RAC-beta serine/threonine-protein kinase (Homo sapiens), sequence (P31751 whole entry): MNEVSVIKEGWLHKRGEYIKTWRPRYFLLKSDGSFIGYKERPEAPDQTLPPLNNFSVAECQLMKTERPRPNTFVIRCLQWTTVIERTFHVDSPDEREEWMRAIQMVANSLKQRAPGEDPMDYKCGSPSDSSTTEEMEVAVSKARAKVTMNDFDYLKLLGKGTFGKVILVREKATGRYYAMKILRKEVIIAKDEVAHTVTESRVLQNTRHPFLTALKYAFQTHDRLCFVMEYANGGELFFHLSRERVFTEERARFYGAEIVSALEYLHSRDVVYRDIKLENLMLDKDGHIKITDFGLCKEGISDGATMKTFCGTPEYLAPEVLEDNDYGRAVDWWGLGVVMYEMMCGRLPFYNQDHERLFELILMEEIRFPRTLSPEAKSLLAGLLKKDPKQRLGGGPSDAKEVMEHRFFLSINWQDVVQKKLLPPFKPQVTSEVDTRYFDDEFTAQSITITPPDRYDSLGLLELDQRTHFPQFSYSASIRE
Ribosomal protein S6 kinase alpha-6, sequence (Q9UK32 whole entry): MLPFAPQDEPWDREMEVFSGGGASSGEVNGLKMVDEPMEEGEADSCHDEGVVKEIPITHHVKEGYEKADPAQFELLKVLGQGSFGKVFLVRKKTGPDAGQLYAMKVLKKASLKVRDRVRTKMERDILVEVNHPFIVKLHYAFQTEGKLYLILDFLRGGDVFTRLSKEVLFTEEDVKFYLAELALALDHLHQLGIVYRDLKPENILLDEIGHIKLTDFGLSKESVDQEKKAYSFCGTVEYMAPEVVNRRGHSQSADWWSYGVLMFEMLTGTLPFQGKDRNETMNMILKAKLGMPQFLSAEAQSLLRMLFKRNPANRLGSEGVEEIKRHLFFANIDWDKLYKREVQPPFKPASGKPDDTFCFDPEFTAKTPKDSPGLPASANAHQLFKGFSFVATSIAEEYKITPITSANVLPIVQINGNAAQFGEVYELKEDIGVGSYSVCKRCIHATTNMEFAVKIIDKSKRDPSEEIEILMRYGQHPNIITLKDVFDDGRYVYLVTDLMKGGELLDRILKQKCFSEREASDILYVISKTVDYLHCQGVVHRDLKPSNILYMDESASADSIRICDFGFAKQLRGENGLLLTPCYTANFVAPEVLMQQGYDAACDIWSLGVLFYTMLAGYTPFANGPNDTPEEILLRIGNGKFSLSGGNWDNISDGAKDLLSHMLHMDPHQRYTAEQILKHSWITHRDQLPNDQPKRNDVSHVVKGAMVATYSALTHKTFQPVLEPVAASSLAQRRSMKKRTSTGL

In experiment [1], `CNC(=O)Nc1ccc(-c2nc(N3CC4CCC(C3)O4)c3cnn(C4CCC5(CC4)OCCO5)c3n2)cc1` yielded a % of control of 83%.

Take `N#Cc1cccc(-c2c[nH]c3ncnc(N4CCOCC4)c23)c1`: the % of control in experiment [2] stood at 29%; in experiment [3] it was 100%. The compound `CC[C@@H]1[C@H](F)C(=O)N[C@@H]1COc1nccc2cc(C(N)=O)c(OC)cc12` [ZIMLOVISERTIB] yielded a % of inhibition in experiment [4] of 12.4%. Compound `COc1cc(Nc2nc(C)cc(-c3cnn4nc(OC)ccc34)n2)cc(C(F)(F)F)c1` returned a % of control in [5] of 100%. Compound `CN(C)CCCOc1ccc(-c2cc(NCCCn3cccn3)nc(S(C)(=O)=O)n2)cc1` registered a Kd in experiment [6] of 1100 nM. As to `CCC(=O)N1CCN(c2ccc(-n3c(=O)ccc4cnc5ccc(-c6cnc7ccccc7c6)cc5c43)cc2C(F)(F)F)CC1`, the % of control in [7] stood at 100%.

Consider `C=CC(=O)Nc1cc(-n2c(=O)ccc3cnc4ccc(-c5ccc(NS(C)(=O)=O)cc5)cc4c32)ccc1C`, for which the % of control in [8] (at 1 µM) is 81%; in experiment [8] (at 10 µM) it was 100%. Regarding `COCC(=O)NC/C=C/c1ccc2ncnc(Nc3ccc(Oc4ccc(C)nc4)c(C)c3)c2c1` [CP-724714], the % of control in experiment [9] was 93%.
